Tests used:
[1] = molecular target: CRBN-DDB1 (Homo sapiens, UniProt Q96SW2); assay: Compound binding to CRBN by HTRF assay; settings: CRBN-DDB1 2.5 nM, Cy5-Thalidomide 100 nM probe; Ki from geometric mean of IC50 by Cheng-Prustoff transformation
Procedure, shortened: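 HTRF competition used 2.5 nM His-tagged CRBN-DDB1, anti-His terbium cryptate and 100 nM Cy5-thalidomide probe in 20 mM HEPES, 20 mM NaCl, 0.2 mM TCEP, 0.2 mM EDTA, 0.005% Tween20. Compounds ran as 10-point 1:3 series for 30 min at ambient temperature, with the 665/620 nm signal normalized to lenalidomide and DMSO controls. Ki came from geometric-mean IC50 by Cheng-Prusoff.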

[2] = molecular target: T1, CDK2 (Homo sapiens, UniProt P24941); assay: CDK2 HiBiT assay (degradation, Dmax); type: cell-based; settings: HEK293 clonal lines with CRISPR KI HiBiT tag on CDK2, stably expressing LgBiT; 24 hours incubation
T1 construct: HEK293 clonal lines with CRISPR KI HiBiT tag on CDK2 proteins; host or cells: HEK293 clonal line with CRISPR knock-in HiBiT on CDK2, stably expressing LgBiT
Procedure, shortened: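 HEK293 with endogenous HiBiT-tagged CDK2 and stable LgBiT, 5000 cells/well, treated 24 h at 37 °C (compound source plate 30 μM). Luminescence after HiBiT lysis reagent 15 min, normalized to plate controls; 3-parameter logistic fit (Hill slope 1) gives EC50 and Dmax.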

Chain of CRBN-DDB1 (Q96SW2 whole entry): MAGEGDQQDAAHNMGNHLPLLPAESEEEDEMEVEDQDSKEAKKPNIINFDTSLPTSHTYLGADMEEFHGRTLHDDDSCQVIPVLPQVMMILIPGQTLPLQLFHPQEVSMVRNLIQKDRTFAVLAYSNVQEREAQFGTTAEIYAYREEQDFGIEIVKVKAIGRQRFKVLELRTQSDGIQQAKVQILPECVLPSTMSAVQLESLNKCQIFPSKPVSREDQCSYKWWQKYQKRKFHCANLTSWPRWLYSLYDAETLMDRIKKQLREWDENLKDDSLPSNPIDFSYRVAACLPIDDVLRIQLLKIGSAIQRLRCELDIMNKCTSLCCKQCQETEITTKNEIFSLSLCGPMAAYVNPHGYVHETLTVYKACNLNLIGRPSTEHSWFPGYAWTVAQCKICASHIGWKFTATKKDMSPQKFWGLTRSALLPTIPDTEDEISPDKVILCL
Chain of CRBN-DDB1 (Q16531 whole entry partner): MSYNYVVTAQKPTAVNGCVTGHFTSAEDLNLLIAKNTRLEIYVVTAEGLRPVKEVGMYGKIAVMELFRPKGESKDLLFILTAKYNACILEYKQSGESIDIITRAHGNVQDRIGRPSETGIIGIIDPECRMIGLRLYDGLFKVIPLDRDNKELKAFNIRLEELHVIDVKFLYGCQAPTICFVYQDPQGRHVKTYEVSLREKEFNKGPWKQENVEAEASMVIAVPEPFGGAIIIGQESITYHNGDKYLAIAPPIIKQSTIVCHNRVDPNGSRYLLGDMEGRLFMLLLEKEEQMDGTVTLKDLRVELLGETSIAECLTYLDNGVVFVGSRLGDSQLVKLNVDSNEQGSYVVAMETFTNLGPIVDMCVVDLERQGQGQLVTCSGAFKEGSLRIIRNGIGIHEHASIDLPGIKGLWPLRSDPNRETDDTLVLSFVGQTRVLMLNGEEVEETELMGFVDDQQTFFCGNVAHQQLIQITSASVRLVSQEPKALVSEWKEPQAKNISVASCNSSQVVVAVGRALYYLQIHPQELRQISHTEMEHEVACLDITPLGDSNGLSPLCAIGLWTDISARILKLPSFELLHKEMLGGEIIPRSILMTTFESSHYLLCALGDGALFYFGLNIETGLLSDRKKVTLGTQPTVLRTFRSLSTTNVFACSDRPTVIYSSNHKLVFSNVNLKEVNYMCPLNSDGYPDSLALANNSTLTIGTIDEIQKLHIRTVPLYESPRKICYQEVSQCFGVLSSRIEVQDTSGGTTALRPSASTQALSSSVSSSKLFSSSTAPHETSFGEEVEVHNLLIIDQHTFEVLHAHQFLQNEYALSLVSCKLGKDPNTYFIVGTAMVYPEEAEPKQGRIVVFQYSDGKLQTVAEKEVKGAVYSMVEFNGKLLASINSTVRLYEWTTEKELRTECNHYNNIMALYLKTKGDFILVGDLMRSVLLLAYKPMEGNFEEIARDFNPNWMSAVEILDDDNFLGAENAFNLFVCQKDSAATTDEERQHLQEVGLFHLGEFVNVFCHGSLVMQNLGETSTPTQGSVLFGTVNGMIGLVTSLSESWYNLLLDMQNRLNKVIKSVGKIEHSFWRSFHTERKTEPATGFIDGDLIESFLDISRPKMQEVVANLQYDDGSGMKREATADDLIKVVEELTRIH

SMILES | Ki [1] [µM] | Dmax [2] [%]
CC[C@H](Cc1ccccc1)OC(=O)NCc1ccc2c(c1)C(=O)N(C1CCC(=O)NC1=O)C2 (stereo partly drawn) [Compound 68, (2R)-1-phenylbutan-2-yl N-{[2-(2,6-dioxopiperidin-3-yl)-3-oxo-2,3-dihydro-1H-isoindol-5-yl]methyl}carbamate] | 0.1 to 1 | ≤ 10
O=C1CCC(N2Cc3ccc(CNC(=O)OCc4ccc(OC(F)(F)F)cc4)cc3C2=O)C(=O)N1 (stereo not shown) [Compound 69, 4-(trifluoromethoxy)benzyl ((2-(2,6-dioxopiperidin-3-yl)-3-oxoisoindolin-5-yl)methyl)carbamate] | 0.1 to 1 | 10 to 50
N#Cc1cc(CNc2nnc(-c3ccccc3)o2)cc2c1CN(C1CCC(=O)NC1=O)C2=O (stereo not shown) [Compound 70, 2-(2,6-dioxopiperidin-3-yl)-1-oxo-6-(((5-phenyl-1,3,4-oxadiazol-2-yl)amino)methyl)isoindoline-4-carbonitrile] | 0.1 to 1 | 10 to 50
O=C1CCC(N2Cc3ccc(CNc4nnc(-c5ccc(OC(F)(F)F)cc5)o4)cc3C2=O)C(=O)N1 (stereo not shown) [Compound 71, 3-(1-oxo-6-(((5-(4-(trifluoromethoxy)phenyl)-1,3,4-oxadiazol-2-yl)amino)methyl)isoindolin-2-yl)piperidine-2,6-dione] | 0.1 to 1 | 50 to 80
O=C1CCC(N2Cc3ccc(CNc4nnc(-c5ccccc5)o4)cc3C2=O)C(=O)N1 (stereo not shown) [Compound 72, 3-(1-oxo-6-(((5-phenyl-1,3,4-oxadiazol-2-yl)amino)methyl)isoindolin-2-yl)piperidine-2,6-dione] | ≤ 0.1 | 10 to 50
O=C1CCC(N2Cc3c(Cl)cc(CNc4nnc(-c5ccc(OC(F)(F)F)cc5)o4)cc3C2=O)C(=O)N1 (stereo not shown) [Compound 73, 3-(4-chloro-1-oxo-6-(((5-(4-(trifluoromethoxy)phenyl)-1,3,4-oxadiazol-2-yl)amino)methyl)isoindolin-2-yl)piperidine-2,6-dione] | ≤ 0.1 | 50 to 80
N#Cc1cc(CNc2nnc(-c3ccc(OC(F)(F)F)cc3)o2)cc2c1CN(C1CCC(=O)NC1=O)C2=O (stereo not shown) [Compound 74, 2-(2,6-dioxopiperidin-3-yl)-1-oxo-6-(((5-(4-(trifluoromethoxy)phenyl)-1,3,4-oxadiazol-2-yl)amino)methyl)isoindoline-4-carbonitrile] | 0.1 to 1 | 10 to 50
O=C1CCC(N2Cc3ccc(CNc4nnc(-c5ccc(OC(F)(F)F)cc5)o4)c(O)c3C2=O)C(=O)N1 (stereo not shown) [Compound 75, 3-(7-hydroxy-1-oxo-6-(((5-(4-(trifluoromethoxy)phenyl)-1,3,4-oxadiazol-2-yl)amino)methyl)isoindolin-2-yl)piperidine-2,6-dione] | 0.1 to 1 | 10 to 50

Source: patent US20240299559A1, “COMPOUNDS THAT MEDIATE PROTEIN DEGRADATION AND METHODS OF USE THEREOF” (Monte Rosa Therapeutics, Inc., priority 2021, published 2024)
